Results as given in patent publication US7235559B1, “Therapeutic quinazoline derivatives” (AstraZeneca AB, priority 1999, dated 2007).

Experiments:
aurora2 kinase = target: T1, aurora2 kinase (Homo sapiens, UniProt O14965); assay: In Vitro aurora2 kinase inhibition test; assay type: biochemical
T1 construct: made in house; host or cells: Spodoptera frugiperda Sf21 insect cells (baculovirus)
T1 sequence (O14965 1-403): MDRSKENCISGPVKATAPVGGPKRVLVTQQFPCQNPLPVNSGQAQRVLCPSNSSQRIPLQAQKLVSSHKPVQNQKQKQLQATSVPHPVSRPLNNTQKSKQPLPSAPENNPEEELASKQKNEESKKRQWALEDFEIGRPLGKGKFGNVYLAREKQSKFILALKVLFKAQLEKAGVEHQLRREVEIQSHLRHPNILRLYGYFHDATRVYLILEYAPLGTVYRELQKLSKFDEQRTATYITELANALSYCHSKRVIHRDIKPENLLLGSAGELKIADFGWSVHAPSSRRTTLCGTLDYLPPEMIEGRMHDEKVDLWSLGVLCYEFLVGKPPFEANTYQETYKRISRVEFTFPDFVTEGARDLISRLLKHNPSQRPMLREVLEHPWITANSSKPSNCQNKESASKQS

MCF7 cells = assay: In Vitro cell cycle analysis assay (FACS); assay type: cell-based, human; details: 10 μM, 24 hours
Description: This assay determines the ability of a test compound to arrest cells in specific phases of the cell cycle. Many different mammalian cell lines could be used in this assay and MCF7 cells are included here as an example. MCF-7 cells were seeded at 3×10^5 cells per T25 flask (Costar) in 5 ml DMEM (no phenol red 10% FCS, 1% L-glutamine 1% penicillin/streptomycin). Flasks were then incubated overnight in a humidified 37° C. incubator with 5% CO2. The following day 1 ml of DMEM (no phenol red 10% FCS, 1% L-glutamine 1% penicillin/streptomycin) carrying the appropriate concentration of test compound solubilised in DMSO was added to the flask. A no compound control treatments was also included (0.5% DMSO). The cells were then incubated for a defined time (usually 24 hours) with compound. After this time the media was aspirated from the cells and they were washed with 5 ml of prewarmed (37° C.) sterile PBSA, then detached from the flask by brief incubation with trypsin and followed by resuspension in 10 ml of 1% Bovine Serum Albumin (BSA, Sigma-Aldrich Co.) in sterile PBSA. The samples were then centrifuged at 2200 rpm for 10 min. The supernatant was aspirated and the cell pellet was resuspended in 200 μl of 0.1% (w/v) Tris sodium citrate, 0.0564% (w/v) NaCl, 0.03% (v/v) Nonidet NP40, [pH 7.6]. Propridium Iodide (Sigma Aldrich Co.) was added to 40 μg/ml and RNAase A (Sigma Aldrich Co.) to 100 μg/ml. The cells were then incubated at 37° C. for 30 minutes. The samples were centrifuged at 2200 rpm for 10 min, the supernatant removed and the remaining pellet (nuclei) resuspended in 200 μl of sterile PBSA. […] The samples were then transferred to LPS tubes and DNA content per cell analysed by Fluorescence activated cell sorting (FACS) using a FACScan flow cytometer (Becton Dickinson). Typically 25000 events were counted and recorded using CellQuest v1.1 software (Verity Software). Cell cycle distribution of the population was calculated using Modfit software (Verity Software) and expressed as percentage of cells in G0/G1, S and G2/M phases of the cell cycle. […]

MCF-7 cells [1] = assay: In Vitro cell proliferation assay, Assay 1 (CyQUANT cell density); assay type: cell-based; details: Homo sapiens, MCF7, 72 h, MCF-7, 3 days in presence of compound, read-out: concentration giving 50% inhibition of cell proliferation
Text: (§1) These and other assays can be used to determine the ability of a test compound to inhibit the growth of adherent mammalian cell lines, for example the human tumour cell line MCF7.
MCF-7 (ATCC HTB-22) or other adherent cells were typically seeded at 1×10^3 cells per well (excluding the peripheral wells) in DMEM (Sigma Aldrich) without phenol red, plus 10% foetal calf serum, 1% L-glutamine and 1% penicillin/streptomycin in 96 well tissue culture treated clear plates (Costar). The following day (day 1), the media was removed from a no treatment control plate and the plate stored at −80° C. The remaining plates were dosed with compound (diluted from 10 mM stock in DMSO using DMEM (without phenol red, 10% FCS, 1% L-glutamine, 1% penicillin/streptomycin). Untreated control wells were included on each plate. After 3 days in the presence/absence of compound (day 4) the media was removed and the plates stored at −80° C. Twenty four hours later the plates were thawed at room temperature and cell density determined using the CyQUANT cell proliferation assay kit (c-7026/c-7027 Molecular Probes Inc.) according to manufacturers directions. Briefly, 200 μl of cell lysis/dye mixture (10 μl of 20× cell lysis buffer B, 190 μl of sterile water, 0.25 μl of CYQUANT GR dye) was added to each well and the plates incubated at room temperature for 5 minutes in the dark. […]

MCF-7 cells [2] = assay: In Vitro cell proliferation assay, Assay 2 (BrdU incorporation); assay type: cell-based; details: Homo sapiens, MCF7; MCF-7, 48 hours with compound, 2 hour BrdU labelling; read-out: concentration giving 50% inhibition of BrdU incorporation
Text: as §1
This assay determines the ability of at test compound to inhibit the incorporation of the thymidine analogue, 5′-bromo-2′-deoxy-uridine (BrdU) into cellular DNA. MCF-7 or other adherent cells were typically seeded at 0.8×10^4 cells per well in DMEM (Sigma Aldrich) without phenol red, plus 10% foetal calf serum, 1% L-glutamine and 1% penicillin/streptomycin (50 μl/well) in 96 well tissue culture treated 96 well plates (Costar) and allowed to adhere overnight. […] The optical density of the wells was then determined at 690 nm wavelength using a Titertek Multiscan plate reader. […]

COc1cc2ncnc(Nc3cnc(NC(=O)c4ccccc4)nc3)c2cc1OC [Compound 6]
IC50 (aurora2 kinase): 7.85 nM
% Cells in G1 (MCF7 cells): 43.22%
% Cells in G2/M (MCF7 cells): 30.38%
% Cells in S (MCF7 cells): 18%
IC50 (MCF-7 cells [1]): 1700 nM
IC50 (MCF-7 cells [2]): 1920 to 2850 nM
